Test results from US12133486B2, “Methods of propagation of arbuscular mycorrhizal fungi (AMF) and uses thereof” (Terra Microbes, LLC, priority 2021, dated 2024).

What was measured:
[1] = system: AMF infections of western wheatgrass (Pascopyron smithii) roots; assay: Field plot study: AM fungal infection of western wheatgrass roots; type: in vivo; conditions: field plots
Description: (§1) Twelve plots of size 50 cm by 50 cm were established on a homogenous site 2.54 meters (running northeast and southwest) by 4.06 meters (running southeast and northwest). Plant distribution was mostly homogeneous across the entire site, with western wheatgrass dominant. The plots were in four rows with three plots in each row. Within a row plots were 25 cm apart. Rows were 50 cm apart. An experimental unit was one plot. Treatments were replicated three times. Treatments included: controls (no treatment), potassium chloride treatment, potassium phosphate treatment, and potassium phosphite treatment. (See, FIG. 2).
(§2) Treatments: All plots received the same amount of solution. The control plots were treated with distilled water only (6.375 L). The KCl plots treated with distilled water containing the same amount of K as was needed to convert the phosphorous acid (H3PO3) to dipotassium phosphite (K2HPO3). The phosphate plots were treated with sufficient dipotassium phosphate (K2HPO4) to deliver 3 g of P per plot dissolved in the same amount of distilled water as the control plots received and the KCl plots received. The phosphite plots were treated with sufficient dipotassium phosphite (K2HPO3) to deliver 3 g of P per plot dissolved in the same amount of distilled water as the control plots received, the KCl plots received and the phosphate plots received.
The field experiment reported in this example was conducted during June through October. Plots were established during early June and treated on the 15th and 16th day (as in Example 3 above). […] Sample size and depth was as detailed above in Example 3.
Analyses of infections were performed by examining roots of wheatgrass (Pascopyron smithii). This plant was the dominant plant in all of the plots and is known to be commonly infected with AM fungi. (See, Loree M. A. J. and Williams S. E., New Phytologist, 106:735-744, 1987; and Wang B. and Qui Y.-L. 2006, Ibid.). During sampling of soils using the methodology outlined in Example 3, above, root of target plants were removed and separated by plant species, each sample being labeled and preserved in FAA solution until being further processed.
Staining of the roots was achieved according to published procedures (see, Phillips J. M. and Hayman D. S., Trans. Brit. Mycological Soc., 55:158-160, 1970) except that cotton blue lactophenol was substituted with lactic acid glycerol with trypan blue since lactophenol is toxic. The procedure used for staining was as follows: • A) Remove roots from FAA Solutions. Cut into 1 cm lengths. Place in test tube, push roots to the bottom of the test tube. • B) Cover roots with 10% KOH (10 grams of reagent grade KOH in enough distilled water to 100 ml). Let stand overnight, about 10 hours. • C) Simmer at 90° C. for one hour in a water bath (container with water and test tubes with roots over a heat source). • D) Rinse in tap water. • E) Rinse five minutes in 0.1 N HCl (3.65 […] of HCl in 1000 ml total volume with distilled water). • F) Rinse in tap water. • G) Simmer at 90° C. one hour (in water bath) in Trypan blue Lactic Acid Glycerol (distilled water, 100 ml; lactic acid (reagent grade 85 to 88%) 100 ml; glycerin (reagent grade 85% also listed as glycerol), 200 ml; trypan blue, 0.1 grams (60% dye content). • H) Rinse in tap water. • I) Place in clear lactic acid glycerol (same formulation as above except without the Trypan blue) if destaining is necessary. Samples can be simmered at 90° C. (one hour in water bath) or left at room temperature for at least 72 hours or longer. • J) Mount on standard glass slide (2.5 cm by 7.6 cm) in lactic acid glycerol. Cover slip (2.3 cm by 4.8 cm) used.
An estimate of the degree of infection of western wheatgrass was made by making microscopic scans of each slide such that 40 root segments were evaluated. The evaluation was performed using the 20× objective, e.g., 200× total magnification—eyepieces were 10× multiplied by the objective magnification. […]

AM fungi = assay: Field plot study: AMF spore counts in soil around western wheatgrass roots; type: in vivo; conditions: field plots
Description: as §1
In this study phosphorus, either as phosphate or phosphite, was added at a rate of 120 kg of P per hectare (ha). Scaled down this equates to 3 grams of phosphorous per plot. One ha is 10,000 m^2. Each plot is 50 cm by 50 cm, or 0.25 m^2. The subsequent calculation then is 120 Kg/10,000 m^2=X/0.25 m^2; X=3.00 grams of P per plot. (See Table 2).
as §2
The field experiment reported in this example was conducted during June through October. Plots were established during early June and treated on the 15th and 16th day (as in Example 3 above). The first soil and root sampling was performed 14 days later (t=14). The second set of samples were taken 47 days later (t=61), and the third set 60 days later (t=121 days). Sample size and depth was as detailed above in Example 3.
AMF spores were evaluated in soil samples from which plant roots including plant roots of western wheatgrass had existed and had been removed. Evaluations were performed on the T=0 and the T=47 samples. These evaluations generally entailed mixing the sample with water, centrifugation, and decanting water. This step was performed to remove light organic matter and other light materials, e.g., leaf fragments. This was followed by mixing the soil with a solution of sodium hexametaphosphate (2%) in 2 M sucrose. Centrifugation results in the spores floating on the sucrose solution or suspended in it. The sucrose solution plus spores is decanted into a separatory funnel. The suspension was allowed to exit the funnel one drop at a time. The spores adhere to the inside of the funnel and once all liquid has exited the funnel the spores are washed into a petri-dish and counted under a dissecting microscope.
The specific protocol for spore extraction was as follows: • A) Weigh 5 g of air dried soil into a 20 ml centrifuge tube. For a complete sample this is replicated four times. • B) Fill each tube with water to ˜1.5 cm of the top. Stir to suspend organic matter and other light debris. Let all tubes stand for 10 minutes. • C) Centrifuge at 2000 rpm (475.2×g) for 10 minutes. Be sure tubes are placed across from each other in the centrifuge and are within 0.1 g of the same weight. • D) Pour off and discard supernatant while stirring surface and rotating tube. • E) If much organic matter and other light material remains, repeat steps B through D. • F) Add sucrose/sodium hexametaphosphate solution (2 molar sucrose containing 2% hexametaphosphate: 684.6 g of sucrose (store grade is adequate) and 20 g of sodium hexametaphosphate in one liter of solution using distilled water) to centrifuge tubes to ˜1.5 cm of top. […]

In the case of `[Cl-].[K+]` [KCl, potassium chloride, reference compound], the “infection level compared to the control and phosphorus treated plants” value ([1]; third sampling, t = 97 days) is reported as “small depression in infection levels”, the “AM Infection t = 0 days” value ([1]; western wheatgrass roots, mean n = 3, first sampling) is reported as 31Aa Per forty 1.1 mm root segments and the “AM Infection t = 47 days” value ([1]; western wheatgrass roots, mean n = 3, second sampling) is reported as 34Aab Per forty 1.1 mm root segments. The “AM Infection t = 97 days” value ([1]; western wheatgrass roots, mean n = 3, third sampling) was 36BCabc Per forty 1.1 mm root segments, the “Total Spores t = 47 days” value (AM fungi; mean n = 3, P added at 120 kg/ha (KCl: same K), second sampling) was 14806Ab Per 100 g soil and the “Total Spores t = 0 days” value (AM fungi; mean n = 3, P added at 120 kg/ha (KCl: same K), t = 0 = first sampling, 14 days after treatment) was 6398Aa Per 100 g soil. The “spore numbers compared with the control” value (AM fungi; second sampling, t = 47) was “significant increase in spore numbers from the control”.
